From US10918728B2, “Compositions and methods for increasing efficiency of cardiac metabolism” (IMBRIA PHARMACEUTICALS, INC., priority 2017, dated 2021)
Each block holds one compound with its values, some of them ahead of it.

Assay: Stability of CV-8972 in aqueous solution at different concentrations and pH
Type: physicochemical
Description: The stability of CV-8972 was analyzed. Aqueous samples containing CV-8972 at different concentrations and pH were incubated for various periods and analyzed.
Form A of CV-8972 were analyzed for stability in aqueous solution. Aqueous samples containing CV-8972 at different concentrations and pH were incubated for various periods and analyzed.

Retention Time 5.6 (CV-8972 purity) (2 mg/mL pH 6 (Form A), 1 hrs, PH 6.1): 97.22
Retention Time 5.6 (CV-8972 purity) (2 mg/mL pH 6 (Form A), 4 hrs, PH 6.1): 97.01
Retention Time 5.6 (CV-8972 purity) (2 mg/mL pH 6 (Form A), 6 hrs, PH 6.1): 96.51
Retention Time 5.6 (CV-8972 purity) (2 mg/mL pH 7 (Form A), 1 hrs, PH 6.8): 95.06
Retention Time 5.6 (CV-8972 purity) (2 mg/mL pH 7 (Form A), 4 hrs, PH 6.7): 93.7
Retention Time 5.6 (CV-8972 purity) (2 mg/mL pH 7 (Form A), 6 hrs, PH 6.7): 92.12
Retention Time 5.6 (CV-8972 purity) (2 mg/mL pH 7 (Form A), 22 hrs, PH 6.8): 91.07
Retention Time 5.6 (CV-8972 purity) (10 mg/mL pH 6 (Form A), 1 hrs, PH 6.8): 93.43
Retention Time 5.6 (CV-8972 purity) (10 mg/mL pH 6 (Form A), 4 hrs, PH 6.8): 91.82
Retention Time 5.6 (CV-8972 purity) (10 mg/mL pH 6 (Form A), 6 hrs, PH 6.7): 91.8
Retention Time 5.6 (CV-8972 purity) (10 mg/mL pH 6 (Form A), 22 hrs, PH 6.7): 89.66
Retention Time 5.6 (CV-8972 purity) (10 mg/mL pH 7 (Form A), 1 hrs, PH 7.2): 89.05
Retention Time 5.6 (CV-8972 purity) (10 mg/mL pH 7 (Form A), 4 hrs, PH 7.1): 86.8
Retention Time 5.6 (CV-8972 purity) (10 mg/mL pH 7 (Form A), 6 hrs, PH 7.1): 84.79
SMILES: COc1ccc(CN2CCN(CCOC(=O)c3cccnc3)CC2)c(OC)c1OC.Cl.O [276-MBA-172]

Retention Time 5.6 (CV-8972 purity) (2 mg/mL pH 6 (Form B), 1 hrs, PH 6.9): 95.1
Retention Time 5.6 (CV-8972 purity) (2 mg/mL pH 6 (Form B), 4 hrs, PH 6.8): 92.45
Retention Time 5.6 (CV-8972 purity) (2 mg/mL pH 6 (Form B), 6 hrs, PH 6.8): 90.65
Retention Time 5.6 (CV-8972 purity) (2 mg/mL pH 6 (Form B), 22 hrs, PH 6.7): 89.15
Retention Time 5.6 (CV-8972 purity) (2 mg/mL pH 7 (Form B), 1 hrs, PH 6.6): 95.46
Retention Time 5.6 (CV-8972 purity) (2 mg/mL pH 7 (Form B), 4 hrs, PH 6.5): 93.92
Retention Time 5.6 (CV-8972 purity) (10 mg/mL pH 6 (Form B), 1 hrs, PH 6.1): 94.81
Retention Time 5.6 (CV-8972 purity) (10 mg/mL pH 6 (Form B), 4 hrs, PH 6): 94.69
Retention Time 5.6 (CV-8972 purity) (10 mg/mL pH 6 (Form B), 6 hrs, PH 5.9): 94.39
Retention Time 5.6 (CV-8972 purity) (10 mg/mL pH 6 (Form B), 22 hrs, PH 5.9): 93.93
Retention Time 5.6 (CV-8972 purity) (10 mg/mL pH 7 (Form B), 1 hrs, PH 7.4): 86.18
Retention Time 5.6 (CV-8972 purity) (10 mg/mL pH 7 (Form B), 4 hrs, PH 7.4): 82.36
Retention Time 5.6 (CV-8972 purity) (10 mg/mL pH 7 (Form B), 6 hrs, PH 7.3): 79.37
SMILES: COc1ccc(CN2CCN(CCOC(=O)c3cccnc3)CC2)c(OC)c1OC.Cl.O [289-MBA-15-A]
